From US9586914B2, “Modulators of C3a receptors” (THE UNIVERSITY OF QUEENSLAND, priority 2011, dated 2017)
“Also recorded” adds a separate entry of the source.

Assays:
[1] = tested on: IL1B, IL8, CCL3, EGR1, FOSB and TNF gene expression in HMDMs; assay: Regulation of inflammatory genes in HMDM (qRT-PCR); format: cell-based, human; settings: HMDMs, 300 nM, 30 minutes; qRT-PCR, fold change from control
Text: Human monocyte-derived macrophages (HMDMS) were isolated from buffy coat of anonymous donors provided by the Australian Red Cross Blood Service at Kelvin Grove, Queensland, Australia. White blood cells were separated from other blood components into different layers using Ficoll-Paque Plus Density Centrifugation (GE Healthcare Bio-Science, Uppsala, Sweden) according to manufacturer's instruction. The isolated white blood cells were repeatedly washed with ice-cold water to remove contaminating erythrocytes. CD14^+ monocytes were positively selected from white blood cells using CD14^+ Macs Magnetic Beads (Miltenyi biotech, Auburn, Calif., USA) after successive magnetic sorting and washings. CD14^+ monocytes (1.5×10^6 cells/mL) were seeded in 10 mL of IMDM supplemented with 10% fetal calf serum (FBS), 10 U/mL streptomycin, 10 U/mL penicillin and 2 mmol L-glutamine (Invitrogen). To generate HMDMS, […] of recombinant human macrophage colony stimulating factor (M-CSF) (Peprotech Inc., rocky Hill, N.J., USA) was added for differentiation. HMDMS were maintained at 37° C. in a humidified incubator with 5% CO2 for a week to fully differentiate. At day 7, the adhered HMDMS were harvested by gentle scraping in saline solution.
HMDMs (2×10^6) in 2 mL of IMDM medium were transferred into each well on a 6-well plate. The cells were left to incubate for 6 h to allow adhesion before being serum starved in serum free IMDM to reduce background noise of the C3a treatment. In the time response experiment, cells were treated with 10 nM of C3a or agonist (compound 8 or 64) for 0.5, 1, 2 or 6 h. In concentration response experiments, cells were treated with 1, 10, 100 or 300 nM for 1 h. To prepare the samples for the microarray experiments, cells were treated with agonist at 100-300 nM for 30 min or 1 h in the absence or presence of the antagonist (e.g. SB-290157 or antagonists). […] Cells were washed with saline solution at the end of each treatment before the RNA extraction step.
Total RNA was extracted from cells using RNeasy Mini Plus kit (Qiagen, USA) according to the manufacturer's instructions. The concentration of the RNA was determined by measuring absorbance at λ=260/280 […] on a nanodrop spectrophotometer (Thermo Scientific), according to the manufacturer's instructions.
Total RNA (2-5 μg) was reverse transcribed with Superscript III (Invitrogen, USA) using random oligo dT primer. Reagents were incubated (50 min, 50° C.; then 10 min, 70° C.) in thermal cyclers (Bio-Rad) to complete the reaction, cDNA samples were stored at −20° C. until further use. All RNA work was performed on ice (4° C.) to prevent degradation of the RNA samples.
cDNA (0.5 μg) samples were prepared with 5 μL SYBR® Green PCR master mix (Applied Biosystems™, CA, USA), 2 μL relevant primers (2 μM) and 1 μL dH2O before being analysed using an ABI 7900HT Fast Real-Time PCR System (Applied Biosystems™, CA, USA) according to the manufacturer's specifications. Fluorescence data was collected during the extension phase (60° C.). The concentration response data for each sample was then normalised against the same data for control housekeeping gene, (18S) to quantify and generate gene expression data. All samples were done in at least duplicate. Primers were designed using the Primer-BLAST software (National Center for Biotechnology Information, USA). Primers contained, amplicons that cross exon-exon boundaries to prevent amplification of genomic DNA. […]

C3aR = biological target: T1, C3aR (Homo sapiens, UniProt Q16581); assay: Desensitization experiments (Ca^2+ efflux after hC3a desensitization); format: cell-based; settings: hC3a 3 μM first; second addition of 1 μM compound; HMDM
T1 construct: peripheral blood mononuclear cells were isolated from buffy coat (obtained from Australian Red Cross Blood Service, Kelvin Grove); endogenous in cells; host or cells: primary human monocyte-derived macrophages (HMDM) differentiated from CD14+ monocytes of donor buffy coat
T1 sequence (Q16581 1-482): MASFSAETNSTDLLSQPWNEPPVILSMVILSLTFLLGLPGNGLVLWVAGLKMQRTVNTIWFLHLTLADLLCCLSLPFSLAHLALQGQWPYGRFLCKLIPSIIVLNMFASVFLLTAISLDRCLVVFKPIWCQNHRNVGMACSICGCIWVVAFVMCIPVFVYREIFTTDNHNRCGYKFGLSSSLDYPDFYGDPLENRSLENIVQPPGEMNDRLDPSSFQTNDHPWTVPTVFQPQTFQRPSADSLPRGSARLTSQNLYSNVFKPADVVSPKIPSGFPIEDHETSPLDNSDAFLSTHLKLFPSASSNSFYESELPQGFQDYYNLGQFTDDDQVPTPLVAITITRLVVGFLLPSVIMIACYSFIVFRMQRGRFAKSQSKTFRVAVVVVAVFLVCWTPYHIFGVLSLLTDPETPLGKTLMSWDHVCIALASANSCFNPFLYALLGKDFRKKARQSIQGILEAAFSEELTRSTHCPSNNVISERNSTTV
Experimental: Desensitization experiments were used to measure the selectivity of various ligands for C3aR, since this can help to clarify whether the non-peptidic ligands bind selectively to C3aR over other GPCRs that signal through intracellular calcium release.
The hC3a (3 μM) was administered to human monocyte derived macrophage cells, which produces an efflux of intracellular Ca^2+ that dissipates after 4-5 mins (FIGS. 4A and 4B). A second addition of 3 μM hC3a after 5 mins has no effect, due to desensitization of the receptor through either receptor (C3a receptor) phosphorylation or receptor internalization from the cell surface.

C3a receptor (C3aR) = biological target: T2, C3a receptor (C3aR) (Homo sapiens, UniProt Q16581); assay: Competitive binding with [^125I]-C3a in HMDM; settings: Table 6, competitive binding with [^125I]-C3a, HMDM
T2 construct: peripheral blood mononuclear cells were isolated from buffy coat (obtained from Australian Red Cross Blood Service, Kelvin Grove); endogenous in cells; host or cells: primary human monocyte-derived macrophages (HMDM) differentiated from CD14+ monocytes of donor buffy coat
T2 sequence (Q16581 1-482): T1 sequence (Q16581 1-482)
Outline: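 IC50 values are geometric means, with −log IC50 computed per experiment and given as arithmetic mean ± SE. Cells were CD14+ monocytes from buffy-coat PBMC, differentiated to macrophages and used on day 7. Unbound label was removed by GF/B filtration with 3 cold washes in 50 mM Tris-HCl pH 7.4.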

pIC50 ± SEM (C3a receptor (C3aR)): 8.03 ± 0.05 | IC50 (C3a receptor (C3aR); read-out: IC50 (converted)): 9 nM
SMILES: CC(C)C[C@H](NC(=O)c1c[nH]c2ccccc12)c1nc(C(=O)N[C@@H](CCCNC(=N)N)C(=O)O)co1 [Compound 8, 3-Indole Carboxylic Acid-Leucine-Oxazole-Arginine-OH]
Induction of gene expression of IL1B, IL8, CCL3, EGR1, FOSB and TNF [1]: significantly induce gene expression; also recorded: induced expression of inflammatory genes | Ca^2+ efflux on addition after first desensitization with hC3a (selectivity for C3aR over other GPCRs) (C3aR): caused a second efflux of intracellular Ca^2+
